Results on two compounds are retold here after patent US11773093B1, “N-(pyrimido[2,3-b]indol-7-yl)acetamide compounds as antibacterial agents” (KING FAISAL UNIVERSITY, priority 2023, dated 2023).

The test system of assay [1] is Staphylococcus epidermidis. Put plainly: In vitro antibacterial activity (MIC, CLSI M07-A10 dilution). It is filed as cell-based.
Assay [2] deals with Klebsiella pneumonia MTCC 618. The description is as above. It is filed as cell-based. The following applies: Klebsiella pneumoniae, MTCC618.
Assay [3] has as its system Mycobacterium tuberculosis H37Rv strain. The assay is described as follows: Anti-tubercular properties, alamar blue microplate MIC. It is filed as cell-based. As to conditions: 168 h, M. tuberculosis H37Rv, seven days incubation at 37° C., read-out: anti-mycobacterial activity (MIC).
The target in another assay is T1, DNA gyrase from E. coli (Escherichia coli, UniProt P0AES4+P0AES6).
T1 construct: purchased Inspiralis
The assay is described as follows: Inhibitory activities on E. coli DNA Gyrase (Inspiralis assay). It is filed as biochemical. The protocol:
Inhibitory potencies were investigated utilizing the Inspiralis assay on streptavidin-coated 96-well microtiter plates. First, the plates were rehydrated with buffer (20 mM Tris-HCl with pH 7.6, 0.01% w/v BSA, 0.05% v/v Tween 20, 137 mM NaCl) and the biotinylated oligonucleotide was then immobilized. After washing off the unbound oligonucleotide, the enzyme test was performed. The reaction volume of 30 μL in buffer (35 mM Tris×HCl with pH 7.5, 4 mM MgCl2, 24 mM KCl, 2 mM DTT, 1.8 mM spermidine, 1 mM ATP, 6.5% w/v glycerol, 0.1 mg/mL albumin) contained 1.5 U of DNA gyrase from E. coli, 0.75 μg of relaxed pNO1 plasmid, and 3 μL solution of the inhibitor in 10% DMSO and 0.008% Tween 20. Reaction solutions were incubated at 37° C. for 30 min. After that, the TF buffer (50 mM NaOAc with pH 5.0, 50 mM NaCl and 50 mM MgCl2) was added to terminate the enzymatic reaction. After additional incubation for 30 min at rt, during which biotinoligonucleotide-plasmid triplex was formed, the unbound plasmid was washed off using TF buffer and SybrGOLD in T10 buffer (10 mM Tris HCl with pH 8.0 and 1 mM EDTA) was added. The fluorescence was measured with a microplate reader (BioTek Synergy H4, excitation: 485 nm, emission: 535 nm). Initial screening was done at 100 or 10 μM concentration of inhibitors. […] GraphPad Prism software was used to calculate the IC50 values. […]

Assay [4] concerns Escherichia coli MTCC 443. The assay is described as follows: In vitro antibacterial activity (MIC, CLSI M07-A10 dilution). As to conditions: MTCC443. It counts as cell-based.
In assay [5] the test system is Staphylococcus aureus ATCC BAA-1556 (MERSA resistant). The assay is described as above. It counts as cell-based. As to conditions: ATCCBAA1556.
Assay [6] deals with Staphylococcus aureus ATCC 29213. The assay is described as above. It is filed as cell-based. As to conditions: ATCC29213.
The subject of assay [7] is Enterococcus faecium ATCC 51559 (VRE resistant). The description is as above. It is filed as cell-based.
Assay [8] concerns Pseudomonas aeruginosa MTCC 741. The assay is described as above. It counts as cell-based. As to conditions: MTCC741.
For assay [9], the system named is Enterococcus faecium ATCC 35667. Described as above. It is filed as cell-based. The following applies: ATCC35667.
The test system of assay [10] is Bacillus subtilis MTCC 441. The assay is described as above. It is filed as cell-based. The following applies: MTCC441.

Converted amounts (≈) assume the structure as drawn. Like-named read-outs stand apart in the source and are kept apart here.

T1 sequence (P0AES4 whole entry, one chain of several): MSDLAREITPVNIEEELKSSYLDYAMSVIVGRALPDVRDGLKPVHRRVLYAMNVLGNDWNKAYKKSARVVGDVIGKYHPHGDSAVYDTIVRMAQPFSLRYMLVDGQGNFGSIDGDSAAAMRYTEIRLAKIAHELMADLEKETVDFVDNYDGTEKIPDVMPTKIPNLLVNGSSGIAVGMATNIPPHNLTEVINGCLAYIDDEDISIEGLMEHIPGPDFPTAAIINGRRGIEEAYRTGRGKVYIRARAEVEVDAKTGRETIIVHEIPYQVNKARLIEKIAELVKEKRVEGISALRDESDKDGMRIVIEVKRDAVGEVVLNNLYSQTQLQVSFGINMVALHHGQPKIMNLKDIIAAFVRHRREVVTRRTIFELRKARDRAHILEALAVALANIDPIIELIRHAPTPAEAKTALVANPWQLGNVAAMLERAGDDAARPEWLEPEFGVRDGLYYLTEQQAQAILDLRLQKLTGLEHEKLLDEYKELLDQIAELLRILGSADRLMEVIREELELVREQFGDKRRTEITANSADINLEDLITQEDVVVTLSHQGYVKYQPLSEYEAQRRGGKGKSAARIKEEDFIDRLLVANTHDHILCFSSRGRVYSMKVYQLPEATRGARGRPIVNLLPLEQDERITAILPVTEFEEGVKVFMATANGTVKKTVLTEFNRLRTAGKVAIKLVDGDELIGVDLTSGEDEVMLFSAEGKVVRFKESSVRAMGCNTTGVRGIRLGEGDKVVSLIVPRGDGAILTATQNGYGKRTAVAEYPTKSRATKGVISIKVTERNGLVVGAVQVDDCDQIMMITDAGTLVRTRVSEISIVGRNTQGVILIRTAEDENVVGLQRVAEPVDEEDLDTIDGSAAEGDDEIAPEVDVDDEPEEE

The term MIC denotes the lowest concentration that inhibits growth of the organism. As usually defined, the IC50 is the concentration that inhibits the measured activity by half. Regarding `CC(=O)Nc1ccc2c(c1)[nH]c1nccc(Nc3ccc(C(=O)O)cc3)c12` [Example 8, 4-((7-acetamido-9H-pyrido[2,3-b]indol-4-yl)amino)benzoic acid], the minimal inhibitory concentration (MIC) in assay [1] was 0.25 µg/mL (≈ 0.694 µM); in [2] (Klebsiella pneumonia MTCC 618, read-out: MIC), 1 µg/mL (≈ 2.77 µM); in [3], 8 µg/mL (≈ 22.2 µM); in assay [4], 1 µg/mL (≈ 2.77 µM); in assay [5], 4 µg/mL (≈ 11.1 µM); in assay [6] it was 0.25 µg/mL (≈ 0.694 µM). Moreover, the MIC is 1 µg/mL (≈ 2.77 µM) in assay [7] (Enterococcus faecium ATCC 51559 (VRE resistant), read-out: MIC); 0.25 µg/mL (≈ 0.694 µM) in [8] (Pseudomonas aeruginosa MTCC 741, read-out: MIC); 0.5 µg/mL (≈ 1.39 µM) in [9] (Enterococcus faecium ATCC 35667, read-out: MIC); 0.25 µg/mL (≈ 0.694 µM) in assay [10] (Bacillus subtilis MTCC 441, read-out: MIC). Moreover, on DNA gyrase from E. coli, the IC50 is 125 nM.

For `CN[C@H](CC(C)C)C(=O)N[C@H]1C(=O)N[C@@H](CC(N)=O)C(=O)N[C@H]2C(=O)N[C@H]3C(=O)N[C@H](C(=O)N[C@H](C(=O)O)c4cc(O)cc(O)c4-c4cc3ccc4O)[C@H](O)c3ccc(c(Cl)c3)Oc3cc2cc(c3O[C@@H]2O[C@H](CO)[C@@H](O)[C@H](O)[C@H]2O[C@H]2C[C@](C)(N)[C@H](O)[C@H](C)O2)Oc2ccc(cc2Cl)[C@H]1O` [Vancomycin, reference compound], the minimum inhibitory concentration (MIC) in assay [2] is above 128 µg/mL; in assay [7] (Enterococcus faecium) it was above 128 µg/mL; in [8] (Pseudomonas aeruginosa), above 128 µg/mL; in assay [9] (Enterococcus faecium) it was 0.5 µg/mL (≈ 0.345 µM); in assay [10] (Bacillus subtilis) it was 0.5 µg/mL (≈ 0.345 µM).
